Legend:
[1] = Incubation with HKM for FMO; assay type: in vitro ADME, human; conditions: HKM pH 8.4, NADPH, with/without methimazole, heat inactivation
Experimental: (§1) MPZ, at 1.0 and 10.0 μM, was incubated with HLM or HKM to determine the contribution of microsomal FMOs on the metabolism of MPZ. A reaction mixture containing KPi buffer (pH 8.4), HLM or HKM (0.5 mg/mL protein) and MPZ (1.0 and 10.0 μM) was pre-incubated for 3-5 minutes at 37° C. The reaction was initiated by the addition of NADPH into the reaction mixture. Reaction was conducted for 0 and 60 min. A positive control (benzydamine, 100 μM) was incubated in duplicate for 0 and 20 minutes. Parallel incubation was conducted by adding 1 mM methimazole, a non-specific FMO inhibitor, under identical conditions. Heat inactivated microsomes (50° C. for at least 5 minutes) was incubated under identical conditions negative control. All other procedures were the same as described previously.

[2] = both, human, in vivo, po, 60 mg
Experimental: The clinical study was conducted at Biotrial Rennes (Rennes, France), in accordance with the Declaration of Helsinki. The study (NG100-101) was a double-blind, placebo-controlled, ascending single- and multiple-dose study of the safety, tolerability, and pharmacokinetics of metopimazine administered orally to healthy adult subjects. The study protocol, informed consent form, and appropriate related documents were approved by the institutional review board, and all subjects provided written informed consent prior to participation in the study.
In this study, sequential ascending single doses were administered to 4 cohorts of 8 participants (6 actives and 2 placebos per cohort, in cohorts 1, 2 and 3 following a randomization 6:2 and in cohort 4 with a 1:1 randomization for the two sentinel participants. In the morning, after at least 10 hours of fasting overnight, eight healthy adult subjects (male or female aged 18 to 45), were orally administered metopimazine (or a matching placebo). Cohort 1-4 received a matching placebo or ascending doses of Vogalene (metopimazine) capsules at the doses of 15 mg, 30 mg, 45 mg, or 60 mg, respectively. […] Plasma concentrations of metopimazine, metopimazine acid and metopimazine sulfoxide were quantified using LC-MS/MS methods. […]

[3] = Incubation of MPZ in human intestine S9; assay type: in vitro ADME; conditions: human intestine S9 1 mg/mL, 2.5 μM MPZ, 60 min
Experimental: Initial experiment was conducted with S9 fractions from liver and intestine to assess the role of liver and intestinal enzymes in the metabolism of MPZ. The reaction mixture contained 2.5 μM MPZ, pooled human liver or intestine S9 fraction (1 mg/mL S9 protein), 100 mM KPi buffer (pH 7.4). The reaction mixture was pre-incubated for 3-5 min at 37° C. in a humidified incubator filled with 5% CO2 followed by the addition of NADPH (1 mM) to initiate the reaction. The reaction was incubated for 0 and 60 min. The total percentage of organic solvent in incubation mixture was <0.1%. The reactions were terminated by the addition of sample mixture of acetonitrile and ethanol (90:10, v/v). The positive control substrate, 7-EC, was incubated in triplicate in an identical manner as MPZ for S9 fractions.

microsomal FMOs in HLM = assay: Incubation with HLM for FMO (pH 8.4, methimazole, heat); assay type: in vitro ADME, human; conditions: 1 and 10 μM MPZ, NADPH, with and without methimazole, heat-pretreated control
Experimental: MPZ, at 1.0 and 10.0 μM, was incubated with HLM or HKM to determine the contribution of microsomal FMOs on the metabolism of MPZ.
as §1, with “A” for “MPZ, at 1.0 and 10.0 μM, was incubated with HLM or HKM to determine the contribution of microsomal FMOs on the metabolism of MPZ. A”

Compound | metabolite production in HKM [1] | metabolite production in HKM ([1]; listed as metopimazine) | Tmax [2] | metabolism of MPZ [3] | MPZA formation in HLM at pH 8.4 (microsomal FMOs in HLM)
CS(=O)(=O)c1ccc2c(c1)N(CCCN1CCC(C(N)=O)CC1)c1ccccc1S2 [MPZ, metopimazine] | did not produce any metabolites | No metabolites were produced under any condition | 3 h | virtually no metabolism | 
CS(=O)(=O)c1ccc2c(c1)N(CCCN1CCC(C(=O)O)CC1)c1ccccc1S2 [MPZA, metopimazine acid] |  |  |  |  | Considerable formation of MPZA was observed with all conditions
